Several values for one entry are separate records, joined by “and”; a condition that tells them apart may be missing. Equal entries are not always repeated. Where two headings read alike, the source gives them in different places.
Assays:
[1] = Pharmacokinetic analyses in mouse; assay type: in vivo; settings: mouse; for AUC(0-inf): read-out: AUCinf
Description: Compound concentrations in plasma aliquots were measured by quantitative HPLC-MS/MS using an internal standard. Calibration and quality control samples were prepared using blank plasma from untreated animals. Samples were precipitated with acetonitrile and injected into a HPLC system (Agilent 1200). Separation was performed by gradients of 5 mmol/L ammonium acetate pH 4.0 and acetonitrile with 0.1% formic acid on a 2.1 mm by 50 mm XBridge BEH C18 reversed-phase column with 2.5 µm particles (Waters). The HPLC was interfaced by ESI operated in positive ionisation mode to a triple quadrupole mass spectrometer (5000 or 6500+ Triple Quad System, SCIEX) operated in multiple reaction monitoring mode. Transitions were 532.4 to 432.8 m/z for BI01810284, 525.6 to 425.7 m/z for BI01802983 and 1021.6 to 624.2 m/z for BI01580883. Chromatograms were analyzed with Analyst (SCIEX) and pharmacokinetic parameters were calculated by non-compartmental analysis using BI-proprietary software.

[2] = Body weight / tolerability in xenograft studies; assay type: in vivo, mouse; settings: A549 xenograft, 80 mg/kg p.o. once daily
Description: To establish subcutaneous tumours, mice were injected with 5 × 10^6 NCI-H1568 in PBS with 5% FCS or with 1 × 10^7 A549 cells in PBS with 5% FCS. Tumour diameters were measured with a caliper three times a week. The volume of each tumour (in mm^3) was calculated according to the formula [tumour volume = length × diameter^2 × π/6]. To monitor side effects of treatment, mice were inspected daily for abnormalities and body weight was determined daily after the start of treatment. Animals were sacrificed when the tumours reached a size of 1500 mm^3. Mice were randomised into treatment groups when the average tumour size reached ~210–220 mm^3. Group sizes were calculated individually for each tumour model based on tumour growth during model establishment experiments. A power analysis was performed using a sample size calculator (https://www.stat.ubc.ca/~rollin/stats/ssize/n2.html). For both models used in the study, 10 mice per group were used for each experiment. All administrations were dosed with 10 ml/kg (s.c. and oral). Control mice were dosed subcutaneously with 10% HP-β-CD in 50% Ringer solution and orally with 15% HP-β-CD, that means the control mouse treatment was corresponding to the solvent of the compounds. Compound 6 was dosed subcutaneously either in a d1-4 q3d, d6-8 q2d, d11-13 q2d treatment (Treatment 1) or a q3 or 4d treatment (Treatment 2).

[3] = 30 mg/kg p.o., NCA, individual animals, 30 mg/kg

Q: What does the source list for `Cc1ncsc1-c1ccc(C(CCC(C)CCN2CCC(c3ccc4c(c3)n(C3CCCC3)c3nc(=O)c5c(Br)cccc5n43)CC2)NC(=O)C2CC(O)CN2C(=O)C(NC(=O)C2(F)CC2)C(C)(C)C)cc1` (centres unmarked) [ACBI2]?
A: Plasma concentration ([1]; 30 mg/kg p.o., 6 h, individual animals, 30 mg/kg): 3380 nM and 2650 nM; Plasma concentration ([1]; 30 mg/kg p.o., 24 h, individual animals, 30 mg/kg): 173 nM and 175 nM; AUC [1, 3]: 53.9 µM·h and 47.2 µM·h; AUCinf [1, 3]: 55 µM·h and 48.3 µM·h; F [1, 3]: 23.8% and 20.9%; concentration at 0.25 h ([1]; plasma, intravenous, 5 mg/kg, 5 mg/kg i.v., time 0.25 h, individual animals, read-out: Concentration): 7530 nM; concentration at 1 h ([1]; plasma, intravenous, 5 mg/kg, 5 mg/kg i.v., time 1 h, individual animals, read-out: Concentration): 6000 nM; concentration at 6 h ([1]; plasma, intravenous, 5 mg/kg, 5 mg/kg i.v., time 6 h, individual animals, read-out: Concentration): 1620 nM; concentration at 24 h ([1]; plasma, intravenous, 5 mg/kg, 5 mg/kg i.v., time 24 h, individual animals, read-out: Concentration): 85.5 nM; AUC ([1]; plasma, iv, 5 mg/kg, 5 mg/kg i.v., individual animals, read-out: AUC): 34.2 µM·h; AUC(0-inf) ([1]; plasma, iv, 5 mg/kg, 5 mg/kg i.v., individual animals): 34.7 µM·h; concentration at 0.25 h ([1]; plasma, iv, 5 mg/kg, 5 mg/kg i.v., 0.25 h, individual animals, read-out: Plasma concentration): 6800 nM; concentration at 1 h ([1]; plasma, iv, 5 mg/kg, 5 mg/kg i.v., 1 h, individual animals, read-out: Plasma concentration): 5130 nM; concentration at 6 h ([1]; plasma, iv, 5 mg/kg, 5 mg/kg i.v., 6 h, individual animals, read-out: Plasma concentration): 1220 nM; concentration at 24 h ([1]; plasma, iv, 5 mg/kg, 5 mg/kg i.v., 24 h, individual animals, read-out: Plasma concentration): 94.9 nM; AUC ([1]; plasma, iv, 5 mg/kg, 5 mg/kg i.v., NCA, individual animals, read-out: AUC): 34.2 µM·h; AUC(0-inf) ([1]; plasma, iv, 5 mg/kg, 5 mg/kg i.v., NCA, individual animals): 34.7 µM·h; clearance ([1]; plasma, iv, 5 mg/kg, 5 mg/kg i.v., NCA, individual animals, read-out: CL): 2.25 mL/min/kg; Vd ([1]; plasma, iv, 5 mg/kg, 5 mg/kg i.v., NCA, individual animals, read-out: Vss): 0.536 L/kg; clearance ([1]; plasma, iv, 5 mg/kg, 5 mg/kg i.v., read-out: clearance): 2.1 mL/min/kg; concentration at 0.333 h ([1]; plasma, oral, 30 mg/kg, 30 mg/kg p.o., time 0.333 h, individual animals, read-out: Concentration): 898 nM; concentration at 1 h ([1]; plasma, oral, 30 mg/kg, 30 mg/kg p.o., time 1 h, individual animals, read-out: Concentration): 4310 nM; concentration at 2 h ([1]; plasma, oral, 30 mg/kg, 30 mg/kg p.o., time 2 h, individual animals, read-out: Concentration): 4290 nM; concentration at 6 h ([1]; plasma, oral, 30 mg/kg, 30 mg/kg p.o., time 6 h, individual animals, read-out: Concentration): 2750 nM; concentration at 24 h ([1]; plasma, oral, 30 mg/kg, 30 mg/kg p.o., time 24 h, individual animals, read-out: Concentration): 265 nM; bioavailability ([1]; plasma, oral, 30 mg/kg, 30 mg/kg p.o. vs 5 mg/kg i.v., read-out: F% p.o. (oral bioavailability)): 22%; bioavailability ([1]; plasma, po, 30 mg/kg, 30 mg/kg p.o. vs 5 mg/kg i.v., individual animals, read-out: F): 21.5%; AUC ([1]; plasma, po, 30 mg/kg, 30 mg/kg p.o., individual animals, read-out: AUC): 47.5 µM·h; AUC(0-inf) ([1]; plasma, po, 30 mg/kg, 30 mg/kg p.o., individual animals): 49.5 µM·h; concentration at 0.333 h ([1]; plasma, po, 30 mg/kg, 30 mg/kg p.o., 0.333 h, individual animals, read-out: Plasma concentration): 898 nM; concentration at 1 h ([1]; plasma, po, 30 mg/kg, 30 mg/kg p.o., 1 h, individual animals, read-out: Plasma concentration): 4310 nM; concentration at 2 h ([1]; plasma, po, 30 mg/kg, 30 mg/kg p.o., 2 h, individual animals, read-out: Plasma concentration): 4290 nM; concentration at 6 h ([1]; plasma, po, 30 mg/kg, 30 mg/kg p.o., 6 h, individual animals, read-out: Plasma concentration): 2750 nM; concentration at 24 h ([1]; plasma, po, 30 mg/kg, 30 mg/kg p.o., 24 h, individual animals, read-out: Plasma concentration): 265 nM; AUC ([1]; plasma, po, 30 mg/kg, 30 mg/kg p.o., NCA, individual animals, read-out: AUC): 47.5 µM·h; AUC(0-inf) ([1]; plasma, po, 30 mg/kg, 30 mg/kg p.o., NCA, individual animals): 49.5 µM·h; bioavailability ([1]; plasma, po, 30 mg/kg, 30 mg/kg p.o., NCA, individual animals, read-out: F): 21.5%; tolerability [2]: well tolerated

From publication PMC9551036, “A selective and orally bioavailable VHL-recruiting PROTAC achieves SMARCA2 degradation in vivo” (Nature Communications, 2022)
